# Laboratory results from patent publication US20140186329A1, “POLYPHENOL ANALOGS TO TREAT ISCHEMIA” (priority 2011, published 2014).
# Where two headings read alike, the source gives them in different places.
# Columns and labels:
# HT22 cells [1] = experiment: Maintenance of total GSH in the presence of glutamate; type: cell-based, mouse; conditions: derivative 1-10 μM, 5 mM glutamate, 24 hr
# Method: Total intracellular glutathione was determined by a chemical assay as described (Maher, P. et al., Free Radical Research. (2006) 40 (10), 1105-1111).
# (§1) Three secondary screens allowed assessment of three key activities of Fisetin that are highly relevant to stroke, as well as other neurological disorders: maintenance of glutathione (GSH), the major endogenous cellular antioxidant, inhibition of LPS-induced microglial activation, an indicator of anti-inflammatory activity and PC 12 cell differentiation, a measure of neurotrophic activity. All of these activities are relevant to the nerve cell loss seen in stroke (Gelderblom, et al., Stroke. 2009, 40 (5), 1849-1857; Pandya, et al., Cent. Nerv. Syst. Agents. Med. Chem. (2011) April 27; Lewerenz, et al., J. Neurochem. (2010) 113 (2), 502-504). […] To assess GSH maintenance, total intracellular GSH levels after a 24 hr treatment with the compound both in the absence and presence of glutamate, an inducer of GSH loss and oxidative stress (Tan, et al., Curr. Top. Med. Chem. (2001) 1, 497-506; Maher, et al., Free Radical Research. (2006) 40 (10), 1105-1111) was measured. Inhibition of LPS-induced microglial activation was determined by treating N9 mouse microglial cells with LPS alone and in the presence of the compounds and assaying NO release into the medium 24 hr later (Zheng, et al., Int. Immunopharmacol. (2008) 8, (3), 484-494). PC12 cell differentiation was determined by treating PC12 cells with the compounds and looking at neurite outgrowth after 24 hr. In all cases, Fisetin was used as a positive control (Sagara, et al., J. Neurochem. (2004) 90, 1144-1155).
# (§2) Cell viability was determined after 24 hr by the MTT assay. The ability to maintain GSH (GSH) was determined by treating HT22 cells with different doses of each derivative (1-10 μM) in the presence of 5 mM glutamate. After 24 hr cell extracts were prepared and analyzed for total GSH. Fisetin (10 μM) was used as a positive control. The ability to induce PC12 cell differentiation (PC 12 diff' n) was determined by treating PC12 cells in N2 medium with different doses of each derivative (1-10 μM) for 24 hr. Differentiation was assessed by visual inspection with Fisetin (10 μM) as a positive control. Anti-inflammatory activity (microglia) was assessed in N9 microglial cells treated with bacterial lipopolysaccharide alone or in the presence different doses of each derivative (1-10 μM) for 24 hr. Fisetin was used as a positive control. TEAC values, a measure of direct antioxidant activity, were determined using the ABTS decolorization assay.
# HT22 cells [2] = experiment: In vitro ischemia assay (HT22 cell IAA assay, MTT); type: cell-based, mouse; conditions: for Emax: HT-22, HT22 Cell IAA assay, read-out: Max Protection; for fold improvement of neuroprotective activity/potency relative to Fisetin: in vitro ischemia, HT22/IAA
# Method: Cell viability was determined by a modified version of 3-(4,5-dimethylthiazol-2-yl)-2,5-diphenyl tetrazolium bromide (MTT) assay based on the standard procedure (Maher, et al., Brain Research. (2007), supra). Cells were seeded onto 96-well microtiter plates at a density of 5×10^3 cells per well. For the in vitro ischemia assay, the next day, the medium was replaced with DMEM supplemented with 7.5% DFCS and the cells were treated with 20 μM iodoacetic acid (IAA) alone or in the presence of the different derivatives. After 2 hr the medium in each well was aspirated and replaced with fresh medium without IAA but containing the derivatives. 20 hr later, the medium in each well was aspirated and replaced with fresh medium containing 2.5 μg/ml MTT. After 4 hr of incubation at 37° C., the cells were solubilized with 100 μl of a solution containing 50% dimethylformamide and 20% SDS (pH 4.7). The absorbance at 570 nm was measured on the following day with a microplate reader (Molecular Devices). Results were confirmed by visual inspection of the wells. Controls included compound alone to test for toxicity and compound with no cells to test for interference with the assay chemistry.
# For a primary screen, an in vitro ischemia model in combination with the HT22 nerve cell line (Maher, et al., Brain Research. (2007) 1173, 117-125) was chosen. […] To induce ischemia in the HT22 cells we used iodoacetic acid (IAA), a well-known, irreversible inhibitor of the glycolytic enzyme glyceraldehyde 3-phosphate dehydrogenase (G3PDH) (Winkler, et al., Exp. Eye Res. (2003) 76, 715-723). IAA has been used in a number of other studies to induce ischemia in nerve cells (Reshef, et al., Neurosci. Lett. (1997) 238, 37-40; Sperling, et al., Neursci. Lett. (2003) 351, 137-140; Rego, et al., Neurochem. Res. (1999) 24, 351-358; Sigalov, et al., J. Mol. Neurosci. (2000) 15, 147-154; and Reiner, et al., Neurosci. Lett. (1990) 119, 175-178), including several recent screens for neuroprotective molecules (Biraboneye, et al., J. Med. Chem. (2009) 52 (14), 4358-4369; Biraboneye, et al., Chem. Med. Chem. (2010) 5 (1), 79-85). The changes following IAA treatment of neural cells are very similar to those seen in animal models of ischemic stroke (Lipton, et al., Physiol. Rev. (1999) 79, 1431-1568) and include alterations in membrane potential (Reiner, et al., Neurosci. Lett. (1990) 119, 175-178), breakdown of phospholipids (Taylor, et al., J. Pharmacol. Exp. Ther. (1996) 276, 1224-1231), loss of ATP (Winkler, et al., Exp. Eye Res. (2003) 76, 715-723; Sperling, et al., Neursci. Lett. (2003) 351, 137-140) and an increase in reactive oxygen species (ROS) (Taylor, et al., J. Pharmacol. Exp. Ther. (1996), supra; and Sperling, et al., Neursci. Lett. (2003) 351, 137-140).
# as §2
# For rapid screening of chemical libraries, a mouse HT22 hippocampal cell death assay induced by addition of the compound iodoacetic acid (IAA) was used. IAA is a well-known, irreversible inhibitor of the glycolytic enzyme glyceraldehyde 3-phosphate dehydrogenase (G3PDH). […]
# PC12 cells = experiment: PC12 cell differentiation (neurite outgrowth); type: cell-based; conditions: N2 medium, derivative 1-10 μM, 24 hr, visual inspection
# Method: PC 12 cells in N2 medium were treated with the derivatives (1-10 μM) or Fisetin (10 μM) as a positive control for 24 hr at which time the cells were scored for the presence of neurites. PC12 cells produce neurites much more rapidly when treated in N2 medium than when treated in regular growth medium. For each treatment, 100 cells in each of three separate fields were counted. Cells were scored positive if one or more neurites>1 cell body diameter in length were observed.
# as §1, §2
# [3] = TEAC, ABTS decolorization assay; conditions: relative to Trolox
# Method: TEAC values for the flavonoids were determined as described (Maher, P. et al., Free Radical Research. (2006), supra). Briefly, 250 μl of 2,2′-azinobis(3-ethylbenzothiazoline 6-sulfonate) (ABTS) treated overnight with potassium persulfate and diluted to an OD of ˜0.7 at 734 nm was added to 2.5 μl of a derivative solution in ethanol. The change in absorbance due to the reduction of the ABTS radical cation was measured at 734 nm for 4 min. To calculate the TEAC, the gradient of the plot of the percentage inhibition of absorbance vs. concentration for the derivative in question was divided by the gradient of the plot for Trolox.
# as §2
# [4] = HT22 cells, 20 μM IAA for 2 hr, viability after 24 hr by MTT
# [5] = Mus musculus, HT-22, HT22 cells, 20 μM IAA for 2 hr, viability after 24 hr by MTT, read-out: EC50 in vitro ischemia
# [6] = Mus musculus, HT-22, HT22 cells, 20 μM IAA, read-out: HT22 Cell IAA assay EC50
# [7] = HT22 cells, 20 μM IAA, read-out: HT22 Cell IAA assay EC50
SMILES,GSH (ability to maintain GSH) (HT22 cells [1]),EC50 in vitro ischemia (μM) (HT22 cells [2]; [4]),PC12 diff'n (ability to induce PC12 cell differentiation) (PC12 cells),TEAC [3],EC50 (HT22 cells [2]; [5]),EC50 (HT22 cells [2]; [6]),Emax (HT22 cells [2]; Mus musculus),fold improvement of neuroprotective activity/potency relative to Fisetin (HT22 cells [2]),EC50 (HT22 cells [2]; [7])
"COc1ccc(-c2cc(OC)c3ccccc3n2)cc1O [CMS-001, 4-methoxy-2-(3-hydroxy, 4-methoxyphenyl) quinoline]",no,no,no,0.24,,,,,
"O=c1cc(-c2ccc(O)c(O)c2)oc2c1ccc1ccccc12 [CMS-02P, reference compound]",no,,yes,0.18,80 nM,≤ 100 nM,86%,~40 fold,
"CCOc1ccc(-c2cc(OC)c3ccccc3n2)cc1OCC [CMS-004, 4-methoxy-2-(3,4-diethoxyphenyl) quinoline]",no,no,no,0.12,,,,,
"CCOc1ccc(/C=C/C(=O)c2cc(C)c(C)cc2O)cc1OCC [CMS-013, (E)-3-(3,4-diethoxyphenyl)-1-(2-hydroxy-4,5-dimethylphenyl)prop-2-en-1-one]",no,no,no,0.09,,,,,
"COc1cc(-c2cc(OC)c3ccccc3n2)ccc1O [CMS-017, 4-methoxy-2-(4-hydroxy, 3-methoxyphenyl) quinoline]",no,,no,0.15,500 nM,,,,
"CCOc1ccc(-c2cc(=O)c3cc(C)c(C)cc3o2)cc1OCC [CMS-018, 2-(3,4-diethoxyphenyl)-6,7-dimethyl-4H-chromen-4-one]",no,no,no,0.15,,,,,
"COc1cc(-c2ccccc2)nc2ccccc12 [CMS-021, 4-methoxy-2-phenylquinoline]",no,,no,0.12,750 nM,,,,
"COc1cc(-c2ccc(O)cc2)nc2ccccc12 [CMS-022, 4-methoxy-2-(4-hydroxyphenyl)quinoline]",no,no,no,0.81,,,,,
"CCOc1ccc(-c2oc3cc(C)c(C)cc3c(=O)c2O)cc1OCC [CMS-025, 2-(3,4-diethoxyphenyl)-3-hydroxy-6,7-dimethyl-4H-chromen-4-one]",no,,no,0.84,500 nM,,,,
"Cc1cc2oc(-c3ccc(O)c(O)c3)c(O)c(=O)c2cc1C [CMS-027, 2-(3,4-dihydroxyphenyl)-3-hydroxy-6,7-dimethyl-4H-chromen-4-one]",no,,no,1.89,500 nM,,,,
"COc1cc(-c2oc3cc(C)c(C)cc3c(=O)c2O)ccc1CCl [CMS-078, 2-(4-(chloromethyl)-3-methoxyphenyl)-3-hydroxy-6,7-dimethyl-4H-chromen-4-one]",,,,,,134 nM,,,
"CC(C)c1ccc(O)c(C(=O)/C=C/c2ccc(O)c(O)c2)c1 [CMS-129, (E)-3-(3,4-dihydroxyphenyl)-1-(2-hydroxy-5-isopropylphenyl)prop-2-en-1-one]",,,,,,≤ 100 nM,81%,,80 nM
"COc1cc(/C=C/C(=O)c2ccc3ccccc3c2O)ccc1N1CCCC1 [CMS-137, (E)-1-(1-hydroxynaphthalen-2-yl)-3-(3-methoxy-4-(pyrrolidin-1-yl)phenyl)prop-2-en-1-one]",,,,,,85 nM,75%,,
"O=C(/C=C/c1ccc(N2CCCC2)c(O)c1)c1ccc2ccccc2c1O [CMS-138, (E)-3-(3-hydroxy-4-(pyrrolidin-1-yl)phenyl)-1-(1-hydroxynaphthalen-2-yl)prop-2-en-1-one]",,,,,,70 nM,72%,,
"COc1cc(-c2oc3c(ccc4ccccc43)c(=O)c2O)ccc1N1CCCC1 [CMS-139, 3-hydroxy-2-(3-methoxy-4-(pyrrolidin-1-yl)phenyl)-4H-benzo[h]chromen-4-one]",,,,,,≤ 100 nM,92%,,50 nM
O=c1cc(-c2ccc(O)c(O)c2)oc2ccccc12 [PM-001],,,,,,500 nM,,6 fold,
O=c1cc(-c2ccc(O)c(O)c2)oc2ccc3ccccc3c12 [PM-003],,,,,,80 nM,,~40 fold,
O=C1/C(=C/c2ccc(O)c(O)c2)Oc2cc(O)ccc21 [PM-014],,,,,,49 nM,,,
